The numbers were not newly measured in patent US20070298135A1, “TOPICAL HERBAL FORMULATIONS” (BIOBOTANIC CORP., priority 2006, published 2007), which cites them from elsewhere.

The structures appear in SMILES notation.

Take `C[C@@H]1CC[C@@]2(OC1)O[C@H]1C[C@H]3[C@@H]4CC=C5C[C@@H](O[C@@H]6O[C@H](CO)[C@@H](O[C@@H]7O[C@@H](C)[C@H](O)[C@@H](O)[C@H]7O)[C@H](O)[C@H]6O[C@@H]6O[C@@H](C)[C@H](O)[C@@H](O)[C@H]6O)CC[C@]5(C)[C@H]4CC[C@]3(C)[C@H]1[C@@H]2C` [Doscin]: where the note is “lipophilic organic solvent”, the “solubility in lipophilic organic solvent” value is listed as “insoluble”. In addition, under “methanol, ethanol, n-butanol, water, hydrate methanol and ethanol, soluble = at least 0.1 mg/ml (w/v) at about 25° C.”, the “solubility in polar liquid media” value was “soluble”.
